Assay results: ChEMBL document CHEMBL5050844 (2019)

How the values were obtained:
Assay type in all cases: functional, T cell line
[1] = Induction of anti-CD3 antibodies-stimulated human T cell activation at 1 uM assessed fold increase in CD25 expression measured by ELISA assay; note: reference of the scale not given here
[2] = Induction of anti-CD3/CD28 antibodies-stimulated human T cell activation at 1 uM assessed fold increase in IL-2 secretion measured by ELISA assay
[3] = Induction of anti-CD3/CD28 antibodies-stimulated human T cell activation at 0.3 uM assessed fold increase in IL-2 secretion measured by ELISA assay
[4] = Induction of anti-CD3 antibodies-stimulated human T cell activation at 1 uM assessed fold increase in IL-2 secretion measured by ELISA assay; note: reference of the scale not given here
[5] = Induction of anti-CD3/CD28 antibodies-stimulated human T cell activation at 4 uM assessed fold increase in CD25 expression measured by ELISA assay
[6] = Induction of anti-CD3 antibodies-stimulated human T cell activation at 8 uM assessed fold increase in CD25 expression measured by ELISA assay; note: reference of the scale not given here
[7] = Induction of anti-CD3/CD28 antibodies-stimulated human T cell activation at 4 uM assessed fold increase in IL-2 secretion measured by ELISA assay
[8] = Induction of anti-CD3/CD28 antibodies-stimulated human T cell activation at 0.3 uM assessed fold increase in CD25 expression measured by ELISA assay
[9] = Induction of anti-CD3 antibodies-stimulated human T cell activation at 8 uM assessed fold increase in IL-2 secretion measured by ELISA assay; note: reference of the scale not given here
[10] = Induction of anti-CD3/CD28 antibodies-stimulated human T cell activation at 1 uM assessed fold increase in CD25 expression measured by ELISA assay

| Compound | fold change (FC) [1] | fold change (FC) ([2]; 1 µM) | fold change (FC) ([3]; 0.3 µM) | fold change (FC) ([4]; 1 µM) | fold change (FC) [5] | fold change (FC) ([6]; 8 µM) | fold change (FC) ([7]; 4 µM) | fold change (FC) [8] | fold change (FC) [9] | fold change (FC) [10] | fold change (FC) [2] | fold change (FC) [3] | fold change (FC) [4] | fold change (FC) [6] | fold change (FC) [7] |
| --- | --- | --- | --- | --- | --- | --- | --- | --- | --- | --- | --- | --- | --- | --- | --- |
| Cc1ccc(C(=O)Nc2cccc(C(C)Cc3nccn3C)c2)nc1C1CC1 (stereo in doubt; 214) | <=0.6 | >=7.5 | >=7.5 | 0.051 | 1.01 | <=0.6 | >=7.5 | <=1 | 0.051 | <=1 |  |  |  |  |  |
| C[C@H](Cc1nncn1C)c1cccc(NC(=O)c2cc(S(C)(=O)=O)cc(C3CC3)n2)c1 | 0.801 |  |  |  | <=1 |  |  | 1.01 | >=0.201 | 1.01 | 1.01 | 1.01 | 0.101 | >=1.001 | 1.01 |
| C[C@H](Sc1nncn1C)c1cccc(NC(=O)c2cccc(C(C)(F)F)n2)c1 | 0.801 |  |  |  | >=1.76 |  |  | 1.01 | 0.151 | 1.51 | <=1 | <=1 | <=0.05 | >=1.001 | 2.51 |
| C[C@H](Cc1nncn1C)c1cc(NCCO)nc(N2Cc3c(cccc3C(F)(F)F)C2=O)c1 | 0.601 |  |  |  | 1.01 |  |  | 1.01 | 0.151 | 1.01 | 1.01 | 1.01 | 0.051 | >=1.001 | 2.51 |
| C[C@H](Sc1nncn1C)c1cccc(NC(=O)c2cc3cc(OCc4ccn[nH]4)ccc3cn2)c1 | <=0.6 |  |  |  | 1.01 |  |  | <=1 | 0.101 | <=1 | 1.01 | 1.01 | 0.051 | <=0.6 | 2.51 |
| C[C@H](Sc1nncn1C)c1ccnc(NC(=O)c2cc(Cl)cc(C(F)(F)F)n2)c1 | <=0.6 |  |  |  | <=1 |  |  | 1.01 | <=0.05 | 1.01 | 1.01 | 1.01 | <=0.05 | 0.601 | <=1 |
| C[C@H](Sc1nncn1C)c1cc(F)cc(N2Cc3c(cccc3C(F)(F)F)C2=O)c1 | <=0.6 |  |  |  | 1.01 |  |  | 1.01 | <=0.05 | 1.01 | 1.01 | <=1 | <=0.05 | 0.801 | <=1 |
| Cc1ccc(C(=O)Nc2cccc([C@H](C)Sc3nncn3C)c2)nc1C(F)(F)F | 0.601 |  |  |  | 1.01 |  |  | <=1 | <=0.05 | 1.01 | <=1 | <=1 | <=0.05 | >=1.001 | 1.01 |
| Cn1cnnc1C(F)(F)[C@](C)(F)c1cccc(N2Cc3c(cc(-c4cncc(F)c4)cc3C(F)(F)F)C2=O)c1 | 0.601 |  |  |  | 1.01 |  |  | <=1 | 0.151 | 1.01 | 2.51 | 1.01 | 0.101 | 0.801 | 2.51 |
| C[C@H](Cc1nncn1C)c1cccc(NC(=O)c2cc(S(N)(=O)=O)cc(C(F)(F)F)n2)c1 | 0.801 |  |  |  | 1.01 |  |  | 1.01 | 0.051 | 1.01 | <=1 | <=1 | <=0.05 | >=1.001 | 1.01 |
| C[C@H](Cc1nncn1C)c1cccc(NC(=O)c2cn3ccnc3cn2)c1 | 0.601 |  |  |  | 1.01 |  |  | <=1 | 0.101 | 1.01 | 1.01 | 1.01 | 0.051 | 0.801 | 1.01 |
| COc1nc(C(=O)Nc2cccc([C@H](C)Sc3nncn3C)c2)cc2ccccc12 | <=0.6 |  |  |  | 1.01 |  |  | <=1 | 0.051 | 1.01 | 5 | 2.51 | <=0.05 | 0.801 | >=7.5 |
| CCn1cnnc1C[C@@H](C)c1cccc(NC(=O)c2cc(C(=O)N3C[C@@H](O)C[C@H]3C)ccn2)c1 | 0.601 |  |  |  | 1.01 |  |  | 1.01 | 0.151 | 1.01 | <=1 | <=1 | 0.151 | 0.601 | 1.01 |
| C[C@@H](c1cccc(N2Cc3c(cccc3C(F)(F)F)C2=O)c1)[C@H](F)c1nncn1C (racemic) | 0.601 |  |  |  | 1.01 |  |  | 1.01 | 0.151 | 1.01 | 1.01 | 1.01 | 0.051 | >=1.001 | 2.51 |
| C[C@H](Cc1nncn1C)c1cccc(NC(=O)c2cc3cccn3cn2)c1 | 0.601 |  |  |  | 1.01 |  |  | 1.01 | 0.101 | 1.01 | 1.01 | 1.01 | 0.051 | 0.801 | 1.01 |
| Cc1cc(C(=O)Nc2cccc([C@H]3C[C@H]3c3nncn3C)c2)nc(C2CC2)n1 | 0.801 |  |  |  | 1.01 |  |  | 1.01 | >=0.201 | 1.01 | 2.51 | 1.01 | 0.101 | >=1.001 | 5 |
| Cc1conc1CC(C)c1cccc(N2Cc3c(cccc3C(F)(F)F)C2=O)c1 (stereo not given) | 0.601 |  |  |  | 1.01 |  |  | 1.01 | 0.051 | 1.01 | 1.01 | 1.01 | <=0.05 | 0.801 | 1.01 |
| Cn1cnnc1C[C@H](c1cccc(N2Cc3c(cccc3C(F)(F)F)C2=O)c1)C(F)(F)F | 0.601 |  |  |  | 1.01 |  |  | 1.01 | 0.101 | 1.01 | 1.01 | 1.01 | 0.051 | 0.801 | 1.01 |
| C[C@H](Cc1nncn1C)c1cccc(NC(=O)c2cc(O[C@H]3CC[C@@H](O)C3)ccn2)c1 | 0.801 |  |  |  | 1.01 |  |  | 1.01 | 0.051 | 1.01 | 1.01 | 1.01 | <=0.05 | 0.801 | 2.51 |
| C[C@H](Cc1nncn1C)c1cccc(NC(=O)c2cncc(C(F)(F)F)n2)c1 | 0.601 |  |  |  | >=1.76 |  |  | >=1.76 | 0.051 | >=1.76 | 2.51 | 1.01 | 0.051 | >=1.001 | 5 |
| Cc1ccc(C(=O)Nc2cccc([C@H](C)Sc3nncn3C)c2)nc1C | <=0.6 |  |  |  | 1.31 |  |  | <=1 | >=0.201 | 1.01 | 2.51 | 1.01 | <=0.05 | 0.601 | 2.51 |
| Cc1cc(C(=O)Nc2cccc([C@H](C)Cc3nncn3C)c2)nc2ccnn12 | 0.601 |  |  |  | 1.31 |  |  | 1.01 | >=0.201 | 1.01 | 1.01 | 1.01 | 0.101 | >=1.001 | 5 |
